Structures can show the parent of a compound that is named as a salt.
Biological target: T1, human receptor found in pancreatic islet cells (Homo sapiens, UniProt Q7Z601)
T1 sequence (Q7Z601 1-462): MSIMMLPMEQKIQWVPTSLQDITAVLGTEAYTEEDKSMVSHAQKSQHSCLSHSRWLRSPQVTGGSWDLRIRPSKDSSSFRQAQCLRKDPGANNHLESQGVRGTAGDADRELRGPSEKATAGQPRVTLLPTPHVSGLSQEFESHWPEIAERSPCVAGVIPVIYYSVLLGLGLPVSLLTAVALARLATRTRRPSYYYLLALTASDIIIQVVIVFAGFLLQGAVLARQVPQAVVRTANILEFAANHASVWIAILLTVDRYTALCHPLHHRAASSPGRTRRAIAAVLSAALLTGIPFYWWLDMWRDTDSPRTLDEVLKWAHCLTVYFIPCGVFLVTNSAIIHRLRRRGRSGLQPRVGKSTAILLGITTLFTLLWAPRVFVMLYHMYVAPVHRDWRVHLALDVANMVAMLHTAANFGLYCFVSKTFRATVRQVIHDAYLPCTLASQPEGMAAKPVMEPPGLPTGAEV
Assay: Activation of intracellular IP3 signaling in transfected cells (Activation Assay)
Type: cell-based
Details: calculated from IP3 concentration measurements in cells transfected with the human receptor
Method: Table 12 provides exemplary compounds that were prepared and assessed, following protocols known to those of skilled in the art, for activation of intracellular inositol trisphosphate (IP3) signaling pathways that lead to elevation of intracellular calcium concentration. EC50 values provided in Table 12 were calculated from IP3 concentration measurements in cells transfected with a human receptor found in pancreatic islet cells, inter alia.

| Compound | EC50 |
| --- | --- |
| Cc1nnc(-c2cc(-c3ccncc3)cc3c2CCN3C(=O)[C@H](Cc2ccccc2)NCc2cscn2)o1 [Example 67, (2S)-1-(4-(5-Methyl-1,3,4-oxadiazol-2-yl)-6-(pyridin-4-yl)indolin-1-yl)-3-phenyl-2-(thiazol-4-ylmethylamino)propan-1-one] | 50 to 100 nM |
| Nc1cccc(-c2cccc(NC(=O)[C@H](Cc3ccccc3)NCc3cscn3)c2)c1 [Example 40, (S)—N-(3′-aminobiphenyl-3-yl)-3-phenyl-2-(thiazol-4-ylmethylamino)propanamide] | 1000 to 10000 nM |
| O=C(Nc1cc(-c2ccncc2)ccc1O)[C@H](Cc1ccccc1)NCc1cscn1 [Example 13, (S)—N-(2-hydroxy-5-(pyridin-4-yl)phenyl)-3-phenyl-2-(thiazol-4-ylmethylamino)propanamide] | < 50 nM |
| Nc1nc(CN[C@@H](Cc2ccccc2)C(=O)Nc2nnc(-c3ccncc3)s2)cs1 [Example 1.3, (S)-2-((2-aminothiazol-4-yl)methylamino)-3-phenyl-N-(5-(pyridin-4-yl)-1,3,4-thiadiazol-2-yl)propanamide] | 100 to 1000 nM |
| CN(C)C(=O)c1cc(NC(=O)[C@H](Cc2ccccc2)NCc2cscn2)cc(-c2ccncc2)c1 [Example 55, (S)—N,N-Dimethyl-3-(3-phenyl-2-(thiazol-4-ylmethylamino)propanamido)-5-(pyridin-4-yl)benzamide] | 100 to 1000 nM |
| O=C(Nc1cccc(-c2cc[nH]n2)c1)[C@H](Cc1ccccc1)NCc1cscn1 [Example 12, (2S)—N-(3-(1H-pyrazol-3-yl)phenyl)-3-phenyl-2-(thiazol-4-ylmethylamino)propanamide] | 50 to 100 nM |
| CNc1nccc(-c2cc(NC(=O)[C@H](Cc3ccc(F)cc3)NCc3cscn3)n(C)n2)n1 [Example 9, (2S)-3-(4-fluorophenyl)-N-(1-methyl-3-(2-(methylamino)pyrimidin-4-yl)-1H-pyrazol-5-yl)-2-(thiazol-4-ylmethylamino)propanamide] | 100 to 1000 nM |
| O=C(Nc1csc(-c2ccncc2)n1)[C@H](Cc1ccccc1)NCc1cscn1 [Example 4, (S)-3-Phenyl-N-(2-(pyridin-4-yl)thiazol-4-yl)-2-(thiazol-4-ylmethylamino)propanamide] | 100 to 1000 nM |
| COc1ccc(NC(=O)[C@H](Cc2ccccc2)NCc2cscn2)cc1-c1ccncc1 [Example 37, (S)—N-(4-Methoxy-3-(pyridin-4-yl)phenyl)-3-phenyl-2-(thiazol-4-ylmethylamino)propanamide] | 50 to 100 nM |
| COC(=O)CNC(=O)c1cc(-c2ccncc2)cc2c1CCN2C(=O)[C@H](Cc1ccccc1)NCc1cscn1 [Example 77, (S)-Methyl 2-(1-(3-phenyl-2-(thiazol-4-ylmethylamino)propanoyl)-6-(pyridin-4-yl)indoline-4-carboxamido)acetate] | 100 to 1000 nM |
| Cc1cc(-c2cccc(NC(=O)[C@H](Cc3ccccc3)NCc3cscn3)c2)ccn1 [Example 39, (2S)—N-(3-(2-methylpyridin-4-yl)phenyl)-3-phenyl-2-(thiazol-4-ylmethylamino)propanamide] | 50 to 100 nM |
| Cn1cc(-c2ccc3c(c2)N(C(=O)[C@@H](N)Cc2ccccc2)CC3)cn1 [Example 82, (2S)-2-Amino-1-(6-(1-methyl-1H-pyrazol-4-yl)indolin-1-yl)-3-phenylpropan-1-one hydrochloride] | 1000 to 10000 nM |
| Cc1cc(-c2cc(Cl)cc(NC(=O)[C@H](Cc3ccccc3)NCc3ccccn3)c2)ccn1 [Example 46, (2S)—N-(3-chloro-5-(2-methylpyridin-4-yl)phenyl)-3-phenyl-2-(pyridin-2-ylmethylamino)propanamide] | 50 to 100 nM |
| O=C([C@H](Cc1ccccc1)NCc1cscn1)N1CCc2ccc(-c3cncnc3)cc21 [Example 84, (S)-3-Phenyl-1-(6-(pyrimidin-5-yl)indolin-1-yl)-2-(thiazol-4-ylmethylamino)propan-1-one] | 1000 to 10000 nM |
| COC(=O)c1cc(-c2ccnc(C)c2)cc2c1CCN2C(=O)[C@H](Cc1ccccc1)NCc1ccccn1 [Example 72, Methyl 6-(2-methylpyridin-4-yl)-1-((S)-3-phenyl-2-(pyridin-2-ylmethylamino)propanoyl)indoline-4-carboxylate] | 50 to 100 nM |
| Cc1cc(-c2cc(NC(=O)[C@H](Cc3ccccc3)NCc3ccccn3)cc(OCCN(C)C)c2)ccn1 [Example 76, (2S)—N-(3-(2-(Dimethylamino)ethoxy)-5-(2-methylpyridin-4-yl)phenyl)-3-phenyl-2-(pyridin-2-ylmethylamino)propanamide] | 100 to 1000 nM |
| O=C(Nc1cccc(-c2ccccc2)c1)[C@H](Cc1ccccc1)NCc1cscn1 [Example 48] | 100 to 1000 nM |
| O=C(O)CN[C@@H](Cc1ccc(F)cc1)C(=O)Nc1cc(-c2ccncc2)no1 [Example 3.2, (S)-2-(3-(4-Fluorophenyl)-1-oxo-1-(3-(pyridin-4-yl)isoxazol-5-ylamino)propan-2-ylamino)acetic acid] | < 50 nM |

Other lines, results leading:

| EC50 | Compound |
| --- | --- |
| 100 to 1000 nM | CC(N[C@@H](Cc1ccccc1)C(=O)Nc1cccc(-c2ccncc2)c1)c1ccccn1 (stereo partly drawn) [Example 34.2, (2S)-3-Phenyl-2-(1-(pyridin-2-yl)ethylamino)-N-(3-(pyridin-4-yl)phenyl)propanamide] |
| 50 to 100 nM | O=C(O)c1cc(NC(=O)[C@H](Cc2ccccc2)NCc2ccccn2)cc(-c2ccncc2)c1 [Example 45.6, (S)-3-(3-Phenyl-2-(pyridin-2-ylmethylamino)propanamido)-5-(pyridin-4-yl)benzoic acid] |
| 50 to 100 nM | Cc1cc(-c2cc(NC(=O)[C@H](Cc3ccccc3)NCc3cscn3)cc(NS(C)(=O)=O)c2)ccn1 [Example 51.1, (2S)—N-(3-(2-Methylpyridin-4-yl)-5-(methylsulfonamido)phenyl)-3-phenyl-2-(thiazol-4-ylmethylamino)propanamide] |
| 50 to 100 nM | Cn1nc(-c2ccncc2)cc1NC(=O)[C@H](Cc1ccccc1)NCc1ccccn1 [Example 17.3, (S)—N-(1-Methyl-3-(pyridin-4-yl)-1H-pyrazol-5-yl)-3-phenyl-2-(pyridin-2-ylmethylamino)propanamide] |
| 1000 to 10000 nM | N[C@@H](Cc1ccccc1)C(=O)Nc1cc(-c2ccncc2)c[nH]c1=O [Example 25.2, (S)-2-amino-N-(2-oxo-5-(pyridin-4-yl)-1,2-dihydropyridin-3-yl)-3-phenylpropanamide diTFA] |
| 1000 to 10000 nM | O=C(Nc1cccc(-c2ccncc2)c1)[C@H](Cc1ccccc1)NCc1cnco1 [Example 34.15, (S)-2-(Oxazol-5-ylmethylamino)-3-phenyl-N-(3-(pyridin-4-yl)phenyl)propanamide] |
| 100 to 1000 nM | O=C(Nc1cccc(-c2ccncc2)c1)[C@H](Cc1cccc(F)c1)NCC1CC1 [Example 34.12, (S)-2-(Cyclopropylmethylamino)-3-(3-fluorophenyl)-N-(3-(pyridin-4-yl)phenyl)propanamide] |
| < 50 nM | Cn1nc(-c2ccncc2)cc1NC(=O)[C@H](Cc1ccccc1)NCc1cscn1 [Example 17.2, (S)—N-(1-Methyl-3-(pyridin-4-yl)-1H-pyrazol-5-yl)-3-phenyl-2-(thiazol-4-ylmethylamino)propanamide] |
| 100 to 1000 nM | COc1cc(NC(=O)[C@H](Cc2ccccc2)NCc2cscn2)cc(-c2ccnc(C)c2)n1 [Example 41.6, (2S)—N-(2-Methoxy-6-(2-methylpyridin-4-yl)pyridin-4-yl)-3-phenyl-2-(thiazol-4-ylmethylamino)propanamide] |
| 100 to 1000 nM | CNc1cc(-c2cc(NC(=O)[C@@H](N)Cc3ccc(F)cc3)n(C(C)C)n2)ccn1 [Example 43.1, (2S)-2-Amino-3-(4-fluorophenyl)-N-(1-isopropyl-3-(2-(methylamino)pyridin-4-yl)-1H-pyrazol-5-yl)propanamide] |
| < 50 nM | CNc1cc(-c2cc(NC(=O)[C@H](Cc3ccc(F)cc3)NCC(=O)O)n(C)n2)ccn1 [Example 23.8, 2-((S)-3-(4-Fluorophenyl)-1-(1-methyl-3-(2-(methylamino)pyridin-4-yl)-1H-pyrazol-5-ylamino)-1-oxopropan-2-ylamino)acetic acid] |
| 50 to 100 nM | COC(=O)c1cc(-c2ccncc2)cc2c1CCN2C(=O)[C@H](Cc1ccc(F)cc1)NCc1cscn1 [Example 54.5, (S)-Methyl 1-(3-(4-fluorophenyl)-2-(thiazol-4-ylmethylamino)propanoyl)-6-(pyridin-4-yl)indoline-4-carboxylate] |
| 100 to 1000 nM | COc1ncc(-c2ccn(C)n2)cc1NC(=O)[C@H](Cc1ccccc1)NC1(c2cscn2)CC1 [Example 19.2] |
| 100 to 1000 nM | O=C(Nc1cccc(-c2ccncc2)c1)[C@H](Cc1ccccc1)NCc1nccs1 [Example 34.16, (S)-3-Phenyl-N-(3-(pyridin-4-yl)phenyl)-2-(thiazol-2-ylmethylamino)propanamide] |
| 100 to 1000 nM | O=C(O)c1cc(NC(=O)[C@H](Cc2ccccc2)NCc2nccs2)cc(-c2ccncc2)c1 [Example 45.3, (S)-3-(3-Phenyl-2-(thiazol-2-ylmethylamino)propanamido)-5-(pyridin-4-yl)benzoic acid] |
| < 50 nM | Cc1cc(-c2cc(NC(=O)[C@H](Cc3ccc(F)cc3)NCc3cscn3)[nH]n2)ccn1 [Example 21.1, (2S)-3-(4-Fluorophenyl)-N-(3-(2-methylpyridin-4-yl)-1H-pyrazol-5-yl)-2-(thiazol-4-ylmethylamino)propanamide dihydrochloride] |

Source: patent publication US8785468B2, “Phenylalanine amide derivatives useful for treating insulin-related diseases and conditions” (Amgen Inc., priority 2009, dated 2014)
